Source: ChEMBL document CHEMBL1201862, “PubChem BioAssay data set” (2004)
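A five-concentration, 48-hour dose response in 96-well plates underlies each endpoint, interpolated linearly between surrounding concentrations. The concentration for 50% growth inhibition is given as GI50.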 Activity calls are given as the source filed them. Cut-off read from the data, not from the text of the source: active = GI50 up to about 1.1 µM and inactive = higher.

Columns and labels:
Assay in all cases: NCI-60 cell line screen, 48 h
[1] = test system: LOX IMVI
[2] = test system: SF-295
[3] = test system: Hs-578T
[4] = test system: NCI-H522
[5] = test system: PC-3
[6] = test system: DU-145
[7] = test system: HT-29
[8] = test system: SF-268
[9] = test system: 786-0
[10] = test system: MDA-MB-231
[11] = test system: MDA-N
[12] = test system: HCC 2998
[13] = test system: IGROV-1
[14] = test system: T47D
[15] = test system: SNB-75
[16] = test system: RPMI-8226
[17] = test system: NCI-H226

Structure (SMILES)	GI50 [1]	GI50 [2]	GI50 [3]	GI50 [4]	GI50 [5]	GI50 [6]	GI50 [7]	GI50 [8]	GI50 [9]	GI50 [10]	GI50 [11]	GI50 [12]	GI50 [13]	GI50 [14]	GI50 [15]	GI50 [16]	GI50 [17]
O=C(N/N=C\c1cccc(O)c1)c1ccncc1	> 100 µM (inactive)	> 100 µM (inactive)	> 100 µM (inactive)	> 100 µM (inactive)	> 100 µM (inactive)	> 100 µM (inactive)	> 100 µM (inactive)	> 100 µM (inactive)	> 100 µM (inactive)	> 100 µM (inactive)	> 100 µM (inactive)	> 100 µM (inactive)	> 100 µM (inactive)	> 100 µM (inactive)	> 100 µM (inactive)		
Nc1nc(N)c2c(Cl)c(CNc3ccc(C(=O)NC(CC(=O)O)C(=O)O)cc3)ccc2n1 (stereo not drawn)	< 0.01 µM (active)	< 0.01 µM (active)	22.8 µM (inactive)	< 0.01 µM (active)	9.31 µM (inactive)	< 0.01 µM (active)	< 0.01 µM (active)	< 0.01 µM (active)	< 0.01 µM (active)	> 100 µM (inactive)	< 0.01 µM (active)	> 100 µM (inactive)	< 0.01 µM (active)	> 100 µM (inactive)	8.87 µM (inactive)	< 0.01 µM (active)	
O=C1c2ccccc2C(=O)N1c1ccc(Cc2ccc(N3C(=O)c4ccccc4C3=O)cc2)cc1	> 100 µM (inactive)	> 50.7 µM (inactive)	> 100 µM (inactive)	> 100 µM (inactive)	> 100 µM (inactive)	> 100 µM (inactive)	> 100 µM (inactive)	> 100 µM (inactive)	> 100 µM (inactive)	> 100 µM (inactive)	> 100 µM (inactive)	> 100 µM (inactive)	> 100 µM (inactive)	> 100 µM (inactive)	> 84.5 µM (inactive)	> 100 µM (inactive)	> 100 µM (inactive)
CCOC(=O)c1cc2c(ccc3cc(C(=O)OCC)[nH]c32)[nH]1	25.6 µM (inactive)	60.7 µM (inactive)	17.2 µM (inactive)	67.1 µM (inactive)	> 100 µM (inactive)	35.2 µM (inactive)		17.1 µM (inactive)	15.6 µM (inactive)	12.6 µM (inactive)	51.5 µM (inactive)	99.8 µM (inactive)	53.7 µM (inactive)	38 µM (inactive)	16.8 µM (inactive)	57.1 µM (inactive)	
NC(=O)N/N=C1/CCC(O)CC1CC(=O)O (stereo not drawn)	> 100 µM (inactive)	> 100 µM (inactive)	> 100 µM (inactive)	> 100 µM (inactive)	> 100 µM (inactive)	> 100 µM (inactive)	> 100 µM (inactive)	> 100 µM (inactive)	> 100 µM (inactive)	> 100 µM (inactive)	> 100 µM (inactive)		> 100 µM (inactive)	> 100 µM (inactive)		> 100 µM (inactive)	> 100 µM (inactive)
COc1cc(C[C@@]2(C)[C@@H]3CCC[C@H](CO)[C@@]3(C)CC[C@@H]2C)c(Cl)c(OC)c1	17.8 µM (inactive)	16.3 µM (inactive)	21.5 µM (inactive)	14.7 µM (inactive)	14.2 µM (inactive)	16.4 µM (inactive)	13.3 µM (inactive)	14.9 µM (inactive)	15.7 µM (inactive)	16.4 µM (inactive)	15.5 µM (inactive)	16.1 µM (inactive)	14.7 µM (inactive)	9.53 µM (inactive)	18 µM (inactive)	20.2 µM (inactive)	15.8 µM (inactive)
CC(=O)NCCC1CN(C(=O)/C=C\C#C[Si](C)(C)C)c2ccccc21 (stereo not drawn)	11.9 µM (inactive)	21.5 µM (inactive)	33 µM (inactive)	10.5 µM (inactive)	27 µM (inactive)	23.3 µM (inactive)	20.3 µM (inactive)	48.2 µM (inactive)		17.3 µM (inactive)	13.5 µM (inactive)	20.1 µM (inactive)	14.1 µM (inactive)	23.3 µM (inactive)		10.5 µM (inactive)	14.9 µM (inactive)
N[C@@H]1c2c(Br)sc(Br)c2[C@H](O)[C@@H]1O	> 100 µM (inactive)	> 100 µM (inactive)	> 100 µM (inactive)	> 100 µM (inactive)	> 100 µM (inactive)	> 100 µM (inactive)	> 100 µM (inactive)	> 100 µM (inactive)	> 100 µM (inactive)	> 100 µM (inactive)	> 100 µM (inactive)	> 100 µM (inactive)	> 100 µM (inactive)	> 100 µM (inactive)	> 100 µM (inactive)		> 100 µM (inactive)
CC1OC2OC3C(OCC(O)C3O)OC(=O)[C@]34CCC(C)(C)CC3C3=CCC5[C@@]6(C)C[C@H](O)[C@H](OC7OC(CO)C(O)C(O)C7OC7OCC(OC(=O)CC(C)(O)CC(=O)OC1C(O)C2O)C(O)C7O)[C@@](C)(CO)C6CC[C@@]5(C)[C@]3(C)CC4 (stereo partly drawn)	9.86 µM (inactive)	3.42 µM (inactive)	8.34 µM (inactive)	3.67 µM (inactive)	2.17 µM (inactive)	3.97 µM (inactive)	2.73 µM (inactive)	2.45 µM (inactive)	12.1 µM (inactive)	9.23 µM (inactive)	4.05 µM (inactive)	2.43 µM (inactive)	5.71 µM (inactive)	4.98 µM (inactive)	5.64 µM (inactive)	4.17 µM (inactive)	14.9 µM (inactive)
CCOC(=O)c1nc2ccccc2nc1Oc1ccc(OC)cc1	> 100 µM (inactive)	> 100 µM (inactive)	> 100 µM (inactive)	29 µM (inactive)	> 100 µM (inactive)	> 100 µM (inactive)	> 100 µM (inactive)	> 100 µM (inactive)	> 100 µM (inactive)	> 100 µM (inactive)	> 100 µM (inactive)		> 100 µM (inactive)	> 100 µM (inactive)		> 100 µM (inactive)	> 100 µM (inactive)
O=C(NCCCCCCNCc1cccc2ccccc12)Nc1cccc2ccccc12	> 100 µM (inactive)	> 100 µM (inactive)	> 100 µM (inactive)	> 100 µM (inactive)	> 100 µM (inactive)	> 100 µM (inactive)	> 100 µM (inactive)	> 100 µM (inactive)	> 100 µM (inactive)	> 100 µM (inactive)	> 100 µM (inactive)	85.3 µM (inactive)	> 100 µM (inactive)	> 100 µM (inactive)	> 100 µM (inactive)	> 100 µM (inactive)	
O=C1CCSSCCC(=O)NCCN1	> 100 µM (inactive)	> 100 µM (inactive)	> 100 µM (inactive)	> 100 µM (inactive)	> 100 µM (inactive)	> 100 µM (inactive)	> 100 µM (inactive)	> 100 µM (inactive)	> 100 µM (inactive)	> 100 µM (inactive)	> 100 µM (inactive)		> 100 µM (inactive)	> 100 µM (inactive)		> 100 µM (inactive)	> 100 µM (inactive)
CSC(=S)OC1CC(n2cnc3c(NC(=O)c4ccccc4)ncnc32)OC1CO[Si](C)(C)C(C)(C)C (stereo not drawn)	8.55 µM (inactive)	9.82 µM (inactive)	38.8 µM (inactive)	7.18 µM (inactive)	5.64 µM (inactive)	26.9 µM (inactive)	9.18 µM (inactive)	30.7 µM (inactive)	13.6 µM (inactive)	41.1 µM (inactive)	7.87 µM (inactive)	9.02 µM (inactive)	27.2 µM (inactive)	5 µM (inactive)	34.1 µM (inactive)	16.3 µM (inactive)	14.2 µM (inactive)
Cc1cc(S(=O)(=O)[N-]/C(=N/S(=O)(=O)c2ccc(Cl)cc2)[n+]2ccc(N(C)C)cc2)c(S)cc1Cl	> 100 µM (inactive)	40.2 µM (inactive)	54.8 µM (inactive)	28.7 µM (inactive)	54 µM (inactive)	> 100 µM (inactive)	44.6 µM (inactive)	89.9 µM (inactive)	> 100 µM (inactive)	> 100 µM (inactive)	> 100 µM (inactive)	> 100 µM (inactive)	> 100 µM (inactive)	> 100 µM (inactive)		48 µM (inactive)	33.8 µM (inactive)
COc1ccc(CC2COc3cc(OC)cc(OC)c3C2=O)cc1 (stereo not drawn)	34.5 µM (inactive)	17.5 µM (inactive)	17.5 µM (inactive)	9.14 µM (inactive)	22.5 µM (inactive)	21.8 µM (inactive)	17.6 µM (inactive)	32.7 µM (inactive)	19 µM (inactive)	33.3 µM (inactive)	3.76 µM (inactive)		28.7 µM (inactive)	16.7 µM (inactive)		15.3 µM (inactive)	
C#C/C=C\CCCC/C=C\C#CC#CCCCC#CC#C[C@H](COS(=O)(=O)O)OS(=O)(=O)O	> 100 µM (inactive)	> 100 µM (inactive)	> 100 µM (inactive)	> 100 µM (inactive)	> 100 µM (inactive)	> 100 µM (inactive)	> 100 µM (inactive)	> 100 µM (inactive)	> 100 µM (inactive)	> 100 µM (inactive)	> 100 µM (inactive)	> 100 µM (inactive)	> 100 µM (inactive)	> 100 µM (inactive)	33 µM (inactive)	> 100 µM (inactive)	
Cc1ccc2c(c1)[n+]([O-])c(N)n[n+]2[O-]	85.3 µM (inactive)	> 100 µM (inactive)	> 100 µM (inactive)	39.6 µM (inactive)	> 100 µM (inactive)	> 100 µM (inactive)	> 100 µM (inactive)	> 100 µM (inactive)	> 100 µM (inactive)	> 100 µM (inactive)	> 100 µM (inactive)		51.5 µM (inactive)	93.5 µM (inactive)	58.1 µM (inactive)	> 100 µM (inactive)	> 100 µM (inactive)
